Reference: ChEMBL document CHEMBL3882730, “Organic Compounds as Smo Inhibitors” (2010)
Converted amounts (≈) assume the structure as drawn.

Assay: Equilibrium solubility of the compound at pH 6.8
Format: physicochemical
Settings: buffer

| SMILES | solubility thermodynamic [µM] |
| --- | --- |
| CC(C)(O)c1cnc(N2CCN(c3nnc(Cc4ccccc4)c4c3CCC4)CC2)cn1 | < 5 |
| C[C@@H]1CN(c2nnc(Cc3ccccc3)c3c2CCC3)CCN1c1cnc(C(C)(C)O)cn1 | 5 to 20 (≈ 2.22 to 8.89 µg/mL) |
